Test results as given in US20260355330A1, “CELL PENETRATING PEPTIDES AND USES THEREOF” (VECTIOPEP OÜ, priority 2022, published 2026).
Entries after “also recorded” stand apart in the source; their conditions may differ. Positions of bridges follow the written chain, without caps; N, C: chain ends. Non-standard residues stand in square brackets, D forms with d. Residues, ends and D or L forms follow the SMILES beside them. Chains are numbered I, II in the order given. *: point of attachment. Stearoyl = CCCCCCCCCCCCCCCCCC(=O)*; Dab = NCC[C@H](N)C(=O)O

Tests used:
[1] = system: CHO-K1 cells; test: Delivery of reporter mRNA with CPPs in cell culture (luciferase luminescence 24 h post-transfection); assay type: cell-based; conditions: for Average RLU/mg (reporter levels post-transfection of mRNA): firefly luciferase mRNA, 0.1 μg per well, charge ratio 3:1, serum containing media, 24 h, RLU normalised to total protein in lysate; for Efficiency of mRNA transfection/delivery: FIG. 1 / Table 2, cell culture; for Delivery of mRNA compared to NF55: comparator NF55
Experimental: FIG. 1: Delivery of reporter mRNA with CPPs in cell culture—evaluation of reporter levels post-transfection (relative light units normalised to total protein in the cell lysate (RLU/mg)). Naked mRNA treated cells were used as controls and Lipofectamine3000 (LF3000) was used to compare the transfection efficacy with a liposome-based transfection reagent.
Adherent CHO-K1 cells were grown in Dulbecco's Modified Eagle's Medium (DMEM), which were supplemented with 0.1 mM non-essential amino acids, 1.0 mM sodium pyruvate, 100 U/ml penicillin, and […]. For complete media, 10% (final) fetal bovine serum (FBS) was added. Cells were maintained in a humidified incubator at 37 °C, 5% CO2. Cell viability and confluence was assessed daily and the cell density was reduced regularly. For cell counting, we used the CytoSMART cell counter accompanied by 0.4% trypan blue staining prior measurement. The multi-well plates with cell cultures used for experiments were incubated in a humidified incubator at 37 °C, 5% CO2.
For in vitro experiments 0.1 μg of nucleic acid (plasmid DNA (pDNA) or mRNA) was used per 96-well plate well. For CPP/NA complex formation, the diluted NA was mixed with CPP in water. Complexes were formed based on the theoretical charge ratio (CR) of positive charges from the peptide in excess to the negative charges from nucleic acid backbone, at charge ratio 3:1 with peptide in excess. Commercial reagent Lipofectamine3000 (LF3000) was used according to the manufacturer's recommendations for the transfection of adherent cells.
For reporter luminescence (expressed from firefly luciferase encoding mRNA or plasmid pDNA) assessment in adherent cell culture, 10,000 cells per 96-well plate well were seeded in 100 μl of media one day prior to transfection. Shortly before transfection, cell media was replaced with 100 μl of serum containing (10% foetal bovine serum) DMEM media. CPPs and mRNA or pDNA were mixed at a charge ratio 3:1 in ultrapure water and incubated at room temperature before addition to cells in serum containing media. Cells were transfected with 0.1 μg of mLuc per well.
24 hours post-transfection, the media was aspirated, cells were washed with 1×PBS, and 30 μl of lysis buffer (0.1% Triton X100 in 1×PBS) was added. Cells were incubated with lysis buffer for 20 min. to lyse the cells. From the lysate, 20 μl was transferred to a black frame white well 96-well plate for luminescence measurement after addition of substrate luciferin (PerkinElmer) in buffer. The luminescence signal was detected with GloMax® 96 microplate luminometer equipped with GloMax® 1.9.2 software (Promega). RLU values were converted to RLU/mg by normalization to total protein in cell lysate, reflecting total number of cells. For protein detection, a Pierce™ BCA Protein Assay Kit was used.
The present inventors have previously reported CPPs developed from the NickFect (NF) and PepFect (PF) families for plasmid (pDNA), siRNA and miRNA delivery (see, e.g. WO 2020/144317, WO 2010/039088 and WO 2012/113846). With the emergence of mRNA-based therapeutics, it was decided to investigate peptides for their ability to deliver mRNA. It was assumed that CPPs that are efficient for siRNA and miRNA delivery, e.g. histidine containing CPPs (Porosk et. al. (2019)), may be good candidates for the delivery of mRNA. Therefore, CPPs from each main family (NF55-, PF14- and NF70-derived CPPs) were tested for mRNA delivery/transfection. Naked mRNA treated and untreated cells were used as control groups. LF3000 was used to compare the transfection efficacy of liposome-based transfection reagents with the CPPs (FIG. 1).

[2] = system: liver, spleen, lung, kidney, heart and thymus of Balb/c mice; test: Biodistribution of reporter levels post-transfection of mRNA or pDNA with CPPs in vivo (tissue homogenate)
Experimental: FIG. 3: Biodistribution of reporter levels post-transfection of mRNA or pDNA with NFs or PFs CPPs in vivo. Reporter gene product levels were evaluated from the whole tissue homogenates collected post mortem. Results are shown as the fold change to mRNA or pDNA treated mice.
(§1) The transfection complexes (CPP/mRNA) were formed using 10 μg of mRNA mixed with each peptide at indicated charge ratios (CRs) in MQ water in a final volume of 100 μl. CRs were calculated theoretically and account for both the positive charges of the peptide and negative charges of the nucleic acid. The transfection complexes (CPP/mRNA and CPP/pDNA) were formed using 50 μg of mRNA mixed with each peptide at indicated charge ratios (CRs) in MQ water in a final volume of 168 μl. The complexes were incubated for 30 minutes at room temperature and then mixed with equal volume of 10% glucose (resulting in a final solution of 5% glucose in a total volume of 200 μl for 10 μg dose groups and 336 μl for 50 μg dose groups) and immediately injected intravenously via the tail vein.
(§2) The reporter gene (luciferase) expression levels were evaluated from the tissue homogenate post mortem 16-24 h after single injection.
In order to determine to which organs in vivo mRNAs may be delivered to with NickFect or PepFect CPPs, mRNA complexes with NF55, NF71 and PF14 were formed and injected through the tail vein of Balb/c mice (FIG. 3A). The organs were harvested 24 hours after the single injection and reporter signal was measured from whole tissue homogenates. The biodistribution of reporter levels was measured in liver, spleen, lung, kidney, heart and thymus.
In order to compare the biodistribution profiles between harvested organs when using either mRNA or pDNA as cargo, NF424 was used to transfect these 2 types of nucleic acids in vivo (FIG. 3B and Table 4).

[3] = system: BALB/c mice; test: Live animal imaging 1-48 hours post administration of NF424/mRNA or NF424/pDNA complexes; assay type: in vivo
Experimental: FIG. 4: Live animal imaging 1-48 hours post administration of NF424/mRNA or NF424/pDNA complexes. Reporter gene product levels were evaluated with full body imager at 1 h, 6 h, 12 h, 24 h, and 48 h post-injection.
as §1
100 μl of luciferin (PerkinElmer), at a concentration of 15 mg/ml, was intraperitoneally injected into the mice. After 10 min, the mice were imaged using the In Vivo Imaging System (IVIS Lumina II, PerkinElmer).
Live animal imaging was used to track the timepoints of mRNA and pDNA transfection with NFs (FIG. 4). The CPP used was NF424, complexes were formed in parallel with mRNA or pDNA and injected through the tail vein of BALB/c mice. The reporter gene expression levels were evaluated with full body imager at 1 h, 6 h, 12 h, 24 h and 48 h post-injection.

[4] = system: spleen of BALB/c mice; test: In vivo delivery of mRNA with CPPs - reporter levels in the spleen; conditions: for Reporter levels in the spleen (RLU): mRNA, tail vein injection, spleens harvested 16 hours after single injection, whole tissue homogenate
Experimental: FIG. 5: Delivery of mRNA with CPPs in vivo—reporter levels in the spleen. Spleens were harvested post mortem 16 hours post-injection. The reporter levels (RLU) were evaluated from the whole tissue homogenate.
as §1, §2
CPPs and mRNA complexes were injected through the tail vein of BALB/c mice, spleens were harvested 16 hours after the single injection and reporter signal was measured from the whole tissue homogenate (FIG. 5 and Table 5).

[5] = in words; previously reported; cited from earlier work
[6] = in words; previously reported; cited from earlier work; remark: listed apart in the source
[7] = NF424 delivery of mRNA, fold change to mRNA treated mice
[8] = NF424 delivery of pDNA, fold change to pDNA treated mice

Molecule: CCCCCCCCCCCCCCCCCC(=O)N[C@@H](C)C(=O)NCC(=O)N[C@@H](Cc1ccc(O)cc1)C(=O)N[C@@H](CC(C)C)C(=O)N[C@@H](CC(C)C)C(=O)NCC(=O)NCC[C@H](N)C(=O)N[C@@H](CC(C)C)C(=O)N[C@@H](CCCCN)C(=O)N[C@@H](C)C(=O)N[C@@H](CC(C)C)C(=O)N[C@@H](C)C(=O)N[C@@H](C)C(=O)N[C@@H](CC(C)C)C(=O)N[C@@H](C)C(=O)N[C@@H](CCCCN)C(=O)N[C@@H](C)C(=O)N[C@H](C(=O)N[C@@H](CC(C)C)C(N)=O)[C@@H](C)CC [NF424] (I: H-[Dab]LKALAALAKAIL-NH2 / II: Stearoyl-AGYLLG; amide I:1-II:C)
- Average RLU/mg (reporter levels post-transfection of mRNA) [1]: 2 590 000 000 RLU/mg
- Efficiency of mRNA transfection/delivery ([1]; in words): the most efficient
- Delivery of mRNA compared to NF54 ([1]; in words, comparator NF54): good improvement in delivery of cargo such as mRNA over NF54
- Delivery of mRNA compared to NF55 ([1]; in words): significantly improved delivery of mRNA over NF55
- Fold/mRNA, Liver [2, 7]: 9 Fold
- Fold/mRNA, Lung [2, 7]: 98 Fold
- Fold/mRNA, Spleen [2, 7]: 8 330 Fold
- Fold/pDNA, Liver [2, 8]: 2 Fold
- Fold/pDNA, Lung [2, 8]: 11 Fold
- Fold/pDNA, Spleen [2, 8]: 5 Fold
- Organ distribution of mRNA delivery ([2]; in words, mRNA cargo): the highest expression levels were found in the spleen of treated mice
- Organ distribution of pDNA delivery ([2]; in words, pDNA cargo): the main expression was found in lungs and liver
- Time at which reporter signal was detected in the spleens ([3]; NF424/mRNA complexes, 10 μg mRNA, tail vein): ≤ 1 h
- Time at which reporter signal was visible in the lungs ([3]; NF424/pDNA complexes, 50 μg pDNA, tail vein): 6 h
- Detected signal, mRNA vs pDNA ([3]; in words, 10 μg mRNA vs 50 μg pDNA): the detected signal was much higher from mRNA
- Main organ of mRNA delivery (live imaging) ([3]; in words, mRNA cargo): delivers mRNA mostly to the spleen
- Main organ of pDNA delivery (live imaging) ([3]; in words, pDNA cargo): pDNA to the lungs
- Efficacy of mRNA delivery into the spleen in vivo ([4]; in words, FIG. 5 / Table 5): highest reporter levels after mRNA delivery into the spleen in vivo
- Delivery of mRNA in vivo compared to NF54 and/or NF55 ([4]; in words, comparator NF54 and/or NF55): significantly improved delivery of mRNA in vivo over both NF54 and NF55
- Reporter levels in the spleen (RLU) [4]: 427 566 RLU

Molecule: CCCCCCCCCCCCCCCCCC(=O)N[C@@H](C)C(=O)NCC(=O)N[C@@H](Cc1ccc(O)cc1)C(=O)N[C@@H](CC(C)C)C(=O)N[C@@H](CC(C)C)C(=O)NCC(=O)NCC[C@H](N)C(=O)N[C@H](C(=O)N[C@@H](CC(N)=O)C(=O)N[C@@H](CC(C)C)C(=O)N[C@@H](CCCCN)C(=O)N[C@@H](C)C(=O)N[C@@H](CC(C)C)C(=O)N[C@@H](C)C(=O)N[C@@H](C)C(=O)N[C@@H](CC(C)C)C(=O)N[C@@H](C)C(=O)N[C@@H](CCCCN)C(=O)N[C@@H](C)C(=O)N[C@H](C(=O)N[C@@H](CC(C)C)C(N)=O)[C@@H](C)CC)[C@@H](C)CC [NF553]
- Average RLU/mg (reporter levels post-transfection of mRNA) [1]: 1 750 000 000 RLU/mg
- Efficiency of mRNA transfection/delivery ([1]; in words): the most efficient
- Delivery of mRNA compared to NF55 ([1]; in words): improved delivery of mRNA over NF55
- Reporter levels in the spleen (RLU) [4]: 57 989 RLU

Molecule: CCCCCCCCCCCCCCCCCC(=O)N[C@@H](C)C(=O)NCC(=O)N[C@@H](Cc1ccc(O)cc1)C(=O)N[C@@H](CC(C)C)C(=O)N[C@@H](CC(C)C)C(=O)NCC(=O)NCCCC[C@H](N)C(=O)N[C@H](C(=O)N[C@@H](CC(N)=O)C(=O)N[C@@H](CC(C)C)C(=O)N[C@@H](CCCCN)C(=O)N[C@@H](C)C(=O)N[C@@H](CC(C)C)C(=O)N[C@@H](C)C(=O)N[C@@H](C)C(=O)N[C@@H](CC(C)C)C(=O)N[C@@H](C)C(=O)N[C@@H](CCCCN)C(=O)N[C@@H](C)C(=O)N[C@H](C(=O)N[C@@H](CC(C)C)C(N)=O)[C@@H](C)CC)[C@@H](C)CC [NF554] (I: H-KINLKALAALAKAIL-NH2 / II: Stearoyl-AGYLLG; amide I:1-II:C)
- Average RLU/mg (reporter levels post-transfection of mRNA) [1]: 1 690 000 000 RLU/mg
- Efficiency of mRNA transfection/delivery ([1]; in words): the most efficient
- Delivery of mRNA compared to NF55 ([1]; in words): improved delivery of mRNA over NF55
- Reporter levels in the spleen (RLU) [4]: 83 650 RLU

Molecule: CCCCCCCCCCCCCCCCCC(=O)N[C@@H](C)C(=O)NCC(=O)N[C@@H](Cc1ccc(O)cc1)C(=O)N[C@@H](CC(C)C)C(=O)N[C@@H](CC(C)C)C(=O)NCC(=O)N[C@@H](CCN)C(=O)N[C@H](C(=O)N[C@@H](CC(N)=O)C(=O)N[C@@H](CC(C)C)C(=O)N[C@@H](CCCCN)C(=O)N[C@@H](C)C(=O)N[C@@H](CC(C)C)C(=O)N[C@@H](C)C(=O)N[C@@H](C)C(=O)N[C@@H](CC(C)C)C(=O)N[C@@H](C)C(=O)N[C@@H](CCCCN)C(=O)N[C@@H](C)C(=O)N[C@H](C(=O)N[C@@H](CC(C)C)C(N)=O)[C@@H](C)CC)[C@@H](C)CC [NF559]
- Average RLU/mg (reporter levels post-transfection of mRNA) [1]: 563 000 000 RLU/mg
- Reporter levels in the spleen (RLU) [4]: 56 280 RLU

Molecule: NF70: SEQ ID NO: 13; HHHHYHHGO*ILLKALKALAKAIL; control/comparator construct [reference compound]
- Average RLU/mg (reporter levels post-transfection of mRNA) [1]: 919 720 RLU/mg
- Efficiency of mRNA transfection/delivery ([1]; in words): not efficient for mRNA delivery
- Reporter levels in the spleen (RLU) [4]: 8 000 RLU
- siRNA delivery efficiency [5]: very efficient for siRNA and miRNA delivery; also recorded: the most efficient, even more efficient than NF55
- miRNA delivery efficiency [6]: very efficient for siRNA and miRNA delivery
